How the values were obtained:
AChE from electric eel = target: T1, AChE from electric eel (Electrophorus electricus, UniProt O42275); assay: biochemical; type: biochemical; conditions: isolated compounds; mean ± SD, n = 3; ND = no detection using test concentration; read-out: IC50 AChE
T1 construct: purchased Sigma-Aldrich Co., St. Louis, USA
Protocol: (§1) The AChE- and BChE-inhibitory, MTT, and Th T assays were analyzed using a UV–visible (VIS) spectrophotometer (Biotek, EPOCH2, Winooski, VT, USA), ensuring accurate measurements. For BACE1- and MAO-B-inhibitory assays, a multimode microplate reader (SpectraMax M3, Molecular Devices, San Jose, CA, USA) was employed, providing precise readings. Analytical-grade DMSO from DEAJUNG Chemical, Korea, served as a solvent in the bioassays. Reagents and solvents, including AChE from electric eel, acetylthiocholine iodide (ATCh), BChE from equine serum, S-butyrylthiocholine iodide (BTCh), 5,5′-dithiobis [2-nitrobenzoic acid] […] Additionally, the BACE1-inhibitory assay utilized the BACE1 (β-secretase) FRET assay kit from PanVera® Corporation, Madison, USA, while the MAO-B-inhibitory assay employed the MAO-B Inhibitor Screening Kit (Fluorometric) ab284511 from Abcam plc Co., Cambridge, UK.
(§2) The inhibitory activities against cholinesterases (AChE and BChE) were evaluated using a spectrophotometric method previously developed by Ellman et al.. Specifically, ATCh and BTCh were used as substrates to measure the inhibitory effects on AChE and BChE, respectively. The assay mixture consisted of 140 μL of 0.1 M sodium phosphate buffer at pH 7.8, 20 μL of a 0.38 U/mL solution of either AChE or BChE, and 20 μL of the test sample solution. This mixture was thoroughly mixed and then incubated at room temperature for 15 min. […] Reactions were initiated by adding 10 μL of 0.5 mM DTNB and 10 μL of either 0.6 mM ATCh or BTCh. ChE-inhibitory activity was monitored by measuring the formation of the yellow 5-thio-2-nitrobenzoate anion at 412 nm over 15 min (Epoch, BioTek, Winooski, VT, USA), resulting from the reaction of DTNB and thiocholine released from ATCh or BTCh. All reactions were conducted in 96-well microplates and performed in triplicate. The percentage of inhibition (%) was determined using the following formula: inhibition (%)={(Ac−As)/Ac}×100 , where Ac represents the enzyme activity in the absence of the test sample, and As represents the enzyme activity in the presence of the test sample. The ChE-inhibitory activities of each sample were quantified in terms of IC50, which was calculated from the log–dose inhibition curve.

BChE from equine serum = target: T2, BChE from equine serum (Equus caballus, UniProt P81908); assay: biochemical; type: biochemical; conditions: isolated compounds; mean ± SD, n = 3; ND = no detection using test concentration; read-out: IC50 BChE
T2 construct: BChE from equine serum; purchased Sigma-Aldrich Co., St. Louis, USA; host or cells: equine serum
Protocol: as §1, §2

MAO-B = target: T3, MAO-B (Homo sapiens, UniProt P27338); assay: MAO-B inhibitor screening kit (fluorometric) assay; type: biochemical; conditions: isolated compounds; mean ± SD, n = 3; ND = no detection using test concentration
T3 construct: purchased Abcam plc, Cambridge, UK ab284511
T3 sequence (P27338 1-520): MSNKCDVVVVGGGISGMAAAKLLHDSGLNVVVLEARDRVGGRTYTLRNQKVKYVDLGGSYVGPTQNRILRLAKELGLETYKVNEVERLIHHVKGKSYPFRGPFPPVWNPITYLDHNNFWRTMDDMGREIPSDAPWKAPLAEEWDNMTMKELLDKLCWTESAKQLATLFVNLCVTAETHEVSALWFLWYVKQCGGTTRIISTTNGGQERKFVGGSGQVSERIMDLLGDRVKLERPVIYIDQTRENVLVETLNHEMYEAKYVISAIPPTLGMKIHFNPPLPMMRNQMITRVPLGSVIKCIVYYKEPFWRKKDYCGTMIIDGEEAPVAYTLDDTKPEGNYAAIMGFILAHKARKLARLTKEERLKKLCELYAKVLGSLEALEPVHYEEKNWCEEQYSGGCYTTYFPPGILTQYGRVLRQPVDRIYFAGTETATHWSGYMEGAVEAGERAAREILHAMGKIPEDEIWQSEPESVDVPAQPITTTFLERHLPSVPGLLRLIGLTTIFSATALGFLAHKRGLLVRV
Protocol: The MAO-B-inhibition assay was conducted using the MAO-B Inhibitor Screening Kit (Fluorometric) ab284511 (Abcam plc, Cambridge, UK), following the manufacturer’s recommended protocol with minor modifications. The enzyme solution (50 µL) and the test sample (10 µL) were adjusted as per the manual instructions. […] After mixing, samples and enzymes were incubated at 25 °C for 10 min. Subsequently, 40 μL of MAO-B substrate (comprising MAO-B assay buffer, MAO substrate, developer, and OxiRed probe) was added, followed by further incubation at 25 °C for 5 min. Fluorescence was measured using enzyme-linked immunosorbent assay within 40 min with dynamic fluorescence (Ex/Em = 535/587 nm). All reactions were recorded in black 96-well microplates and performed in triplicate. The slope for all samples, including the enzyme control (EC), was calculated by dividing the net ΔRFU (RFU2–RFU1) values by the time Δt (T2 − T1). The % relative inhibition was computed as follows: % relative inhibition=(slope of EC−slope of S)/slope of EC×100 . The MAO-B-inhibitory activities of each sample were quantified in terms of IC50, as determined from the log–dose inhibition curve.

sAPPβ = assay: Western blot of sAPPβ levels in APP-CHO cells; type: cell-based, Chinese hamster; conditions: 1.0 μM, 24 h
Protocol: APP-CHO cells were seeded in six-well plates at a density of 6 × 10^5 cells/1000 μL of medium per well and incubated at 37 °C overnight for cell attachment. Then, the medium was replaced with FBS-free RPMI 1640 for 1 h, followed by treatment with test samples at 37 °C. After 24 h, the cells were washed with PBS and lysed in Laemmli sample buffer. The collected cell lysates were boiled at 100 °C for 10 min. For Western blot analysis, 20 μg of proteins were separated by 7.5% SDS-PAGE and transferred to a PVDF membrane using Trans-Blot® Turbo TM (Bio-Rad, Hercules, CA, USA). The membrane was blocked with 5% skim milk in PBS for 1 h and incubated with primary antibodies overnight at 4 °C. The primary antibodies used were sAPPβ antibody, BACE1 antibody, and α-tubulin antibody diluted at 1:1000, 1:1000, and 1:25,000, respectively. After washing with PBS-T (0.1% Tween 20 in PBS) three times for 10 min each, secondary antibodies, diluted to 1:2500, were incubated for 1 h. Protein detection was performed using ECL solution reagent and protein visualization (ChemiDoc^TM XRS+., Bio-Rad, Hercules, CA, USA). The signal intensity of the bands was quantified and normalized to the signal intensity of the α-tubulin band. Results were expressed as a percentage of DMSO-treated control.

T1 sequence (O42275 24-633): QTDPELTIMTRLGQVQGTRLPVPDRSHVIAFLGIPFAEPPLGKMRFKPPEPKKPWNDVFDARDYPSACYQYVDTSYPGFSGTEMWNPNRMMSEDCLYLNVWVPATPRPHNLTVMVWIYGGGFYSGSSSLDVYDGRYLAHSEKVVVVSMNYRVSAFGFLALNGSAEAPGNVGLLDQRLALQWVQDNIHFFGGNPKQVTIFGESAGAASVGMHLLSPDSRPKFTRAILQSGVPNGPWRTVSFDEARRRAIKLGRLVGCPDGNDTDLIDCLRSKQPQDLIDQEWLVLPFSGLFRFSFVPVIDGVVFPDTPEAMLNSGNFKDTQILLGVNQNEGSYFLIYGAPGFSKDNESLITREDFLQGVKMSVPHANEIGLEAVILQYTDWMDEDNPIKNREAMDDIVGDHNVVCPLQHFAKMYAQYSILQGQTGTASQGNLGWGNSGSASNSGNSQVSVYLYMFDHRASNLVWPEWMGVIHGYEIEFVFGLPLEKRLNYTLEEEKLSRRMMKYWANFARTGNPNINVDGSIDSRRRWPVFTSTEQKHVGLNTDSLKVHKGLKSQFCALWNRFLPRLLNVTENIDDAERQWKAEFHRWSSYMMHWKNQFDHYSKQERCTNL
T2 sequence (P81908 whole entry): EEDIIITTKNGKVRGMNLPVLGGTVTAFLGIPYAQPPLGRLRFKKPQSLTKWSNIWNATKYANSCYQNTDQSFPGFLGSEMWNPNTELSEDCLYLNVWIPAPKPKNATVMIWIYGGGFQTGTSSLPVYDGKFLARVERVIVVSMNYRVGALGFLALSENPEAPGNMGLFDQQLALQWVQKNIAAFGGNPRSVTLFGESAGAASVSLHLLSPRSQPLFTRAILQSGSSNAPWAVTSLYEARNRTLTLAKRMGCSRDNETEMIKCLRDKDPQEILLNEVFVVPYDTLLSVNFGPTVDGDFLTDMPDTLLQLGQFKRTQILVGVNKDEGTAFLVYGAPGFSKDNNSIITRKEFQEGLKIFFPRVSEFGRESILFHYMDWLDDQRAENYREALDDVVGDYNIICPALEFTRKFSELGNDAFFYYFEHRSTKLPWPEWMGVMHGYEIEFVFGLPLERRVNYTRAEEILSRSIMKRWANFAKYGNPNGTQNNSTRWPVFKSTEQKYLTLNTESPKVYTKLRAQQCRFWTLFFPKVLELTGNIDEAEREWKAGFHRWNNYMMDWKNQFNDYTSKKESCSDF

SMILES	IC50 (AChE from electric eel)	IC50 (BChE from equine serum)	IC50 (MAO-B)	reduction of sAPPβ levels compared to DMSO-treated controls (sAPPβ)
C[C@@H]1O[C@@H](Oc2c(-c3ccc(O)cc3)oc3cc(O[C@@H]4O[C@H](CO)[C@@H](O)[C@H](O)[C@H]4O)cc(O)c3c2=O)[C@H](O)[C@H](O)[C@H]1O [Compound 6, kaempferol 3-O-rhamnoside 7-O-glucoside]	353.43 ± 0.32 µM	32.6 ± 5.66 µM	109.19 ± 0.08 µM	30%
O=c1c(O[C@@H]2O[C@H](CO)[C@@H](O)[C@H](O)[C@H]2O)c(-c2ccc(O)cc2)oc2cc(O[C@@H]3O[C@@H](CO)[C@H](O)[C@H]3O)cc(O)c12 [Compound 7, kaempferol 3-o-b-d-glucopyranoside-7-o-a-L-arabinofuranoside]	47.33 ± 0.22 µM	28.8 ± 0.31 µM	65.8 ± 3.72 µM	30%
